For three molecules, inhibition and fold change (FC) results are on record in ChEMBL document CHEMBL5653631, “A Potent and Selective ULK1 Inhibitor Suppresses Autophagy and Sensitizes Cancer Cells to Nutrient Stress” (iScience, 2018).

Each structure is given as a SMILES string.

Assay [1] deals with T1, MAP/microtubule affinity-regulating kinase 4 (Homo sapiens) (UniProt Q96L34).
T1 sequence (whole entry): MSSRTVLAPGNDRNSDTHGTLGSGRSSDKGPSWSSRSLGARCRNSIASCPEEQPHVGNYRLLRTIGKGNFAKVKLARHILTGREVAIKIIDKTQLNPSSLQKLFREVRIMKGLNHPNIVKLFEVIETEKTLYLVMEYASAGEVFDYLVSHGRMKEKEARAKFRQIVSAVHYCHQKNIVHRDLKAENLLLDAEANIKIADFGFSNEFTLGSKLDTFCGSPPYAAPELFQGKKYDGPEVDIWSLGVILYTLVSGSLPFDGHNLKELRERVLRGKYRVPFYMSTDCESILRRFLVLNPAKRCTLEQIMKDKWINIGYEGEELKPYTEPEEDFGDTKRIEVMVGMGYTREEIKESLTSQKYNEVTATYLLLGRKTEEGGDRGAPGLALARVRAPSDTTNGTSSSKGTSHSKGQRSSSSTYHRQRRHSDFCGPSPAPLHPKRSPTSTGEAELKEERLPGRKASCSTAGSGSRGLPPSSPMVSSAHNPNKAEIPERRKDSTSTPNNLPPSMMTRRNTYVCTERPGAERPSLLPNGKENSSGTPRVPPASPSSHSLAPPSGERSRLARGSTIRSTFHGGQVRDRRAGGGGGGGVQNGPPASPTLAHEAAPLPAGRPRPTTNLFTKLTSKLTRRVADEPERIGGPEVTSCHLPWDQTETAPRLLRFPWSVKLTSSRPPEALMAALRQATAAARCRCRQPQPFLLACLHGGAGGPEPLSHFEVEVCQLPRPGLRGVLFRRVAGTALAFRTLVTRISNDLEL
Nature of the assay: Inhibition of human recombinant MARK4 at 15 nM in presence of ATP by radiometric assay relative to control.

Assay [2] deals with T2, Serine/threonine-protein kinase TAO2 (Homo sapiens) (UniProt Q9UL54).
T2 sequence (whole entry): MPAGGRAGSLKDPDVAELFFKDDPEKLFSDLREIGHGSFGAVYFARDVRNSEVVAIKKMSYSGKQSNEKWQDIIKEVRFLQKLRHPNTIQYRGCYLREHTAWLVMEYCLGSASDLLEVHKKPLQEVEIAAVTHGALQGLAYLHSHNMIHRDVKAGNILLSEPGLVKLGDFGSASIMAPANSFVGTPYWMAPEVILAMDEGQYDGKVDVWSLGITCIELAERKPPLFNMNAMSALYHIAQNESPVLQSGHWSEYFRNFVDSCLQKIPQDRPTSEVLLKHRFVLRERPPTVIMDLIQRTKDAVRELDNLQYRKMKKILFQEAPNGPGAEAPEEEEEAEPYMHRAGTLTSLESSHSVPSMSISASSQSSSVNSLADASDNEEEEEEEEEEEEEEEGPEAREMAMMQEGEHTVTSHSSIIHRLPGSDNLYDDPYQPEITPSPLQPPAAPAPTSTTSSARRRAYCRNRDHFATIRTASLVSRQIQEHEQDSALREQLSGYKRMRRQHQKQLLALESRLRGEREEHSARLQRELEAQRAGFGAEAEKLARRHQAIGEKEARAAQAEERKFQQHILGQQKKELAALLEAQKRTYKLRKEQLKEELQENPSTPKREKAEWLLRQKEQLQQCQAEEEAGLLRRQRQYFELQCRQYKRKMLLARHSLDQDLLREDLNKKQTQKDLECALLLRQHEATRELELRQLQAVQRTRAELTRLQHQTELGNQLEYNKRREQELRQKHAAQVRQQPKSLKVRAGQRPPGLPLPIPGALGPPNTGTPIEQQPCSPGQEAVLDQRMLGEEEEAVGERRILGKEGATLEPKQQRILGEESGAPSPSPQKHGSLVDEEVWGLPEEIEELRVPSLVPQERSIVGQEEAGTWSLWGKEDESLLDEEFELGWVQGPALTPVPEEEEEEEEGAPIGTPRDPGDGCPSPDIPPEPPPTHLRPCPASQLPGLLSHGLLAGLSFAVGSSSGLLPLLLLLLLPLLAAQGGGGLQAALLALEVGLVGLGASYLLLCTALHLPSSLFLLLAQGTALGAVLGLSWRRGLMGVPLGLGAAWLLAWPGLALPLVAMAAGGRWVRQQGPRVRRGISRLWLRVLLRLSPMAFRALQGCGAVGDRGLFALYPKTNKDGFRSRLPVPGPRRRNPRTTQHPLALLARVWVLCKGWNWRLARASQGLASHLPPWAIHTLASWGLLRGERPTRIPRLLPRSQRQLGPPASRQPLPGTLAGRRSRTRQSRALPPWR
Nature of the assay: Inhibition of human recombinant TAO2 at 15 nM in presence of ATP by radiometric assay relative to control.

Assay [3] deals with Vascular endothelial growth factor receptor 2 (Homo sapiens) (UniProt P35968). Nature of the assay: Inhibition of human recombinant KDR at 40 nM in presence of ATP by radiometric assay relative to control.
Vascular endothelial growth factor receptor 2 (Homo sapiens), sequence (P35968 whole entry): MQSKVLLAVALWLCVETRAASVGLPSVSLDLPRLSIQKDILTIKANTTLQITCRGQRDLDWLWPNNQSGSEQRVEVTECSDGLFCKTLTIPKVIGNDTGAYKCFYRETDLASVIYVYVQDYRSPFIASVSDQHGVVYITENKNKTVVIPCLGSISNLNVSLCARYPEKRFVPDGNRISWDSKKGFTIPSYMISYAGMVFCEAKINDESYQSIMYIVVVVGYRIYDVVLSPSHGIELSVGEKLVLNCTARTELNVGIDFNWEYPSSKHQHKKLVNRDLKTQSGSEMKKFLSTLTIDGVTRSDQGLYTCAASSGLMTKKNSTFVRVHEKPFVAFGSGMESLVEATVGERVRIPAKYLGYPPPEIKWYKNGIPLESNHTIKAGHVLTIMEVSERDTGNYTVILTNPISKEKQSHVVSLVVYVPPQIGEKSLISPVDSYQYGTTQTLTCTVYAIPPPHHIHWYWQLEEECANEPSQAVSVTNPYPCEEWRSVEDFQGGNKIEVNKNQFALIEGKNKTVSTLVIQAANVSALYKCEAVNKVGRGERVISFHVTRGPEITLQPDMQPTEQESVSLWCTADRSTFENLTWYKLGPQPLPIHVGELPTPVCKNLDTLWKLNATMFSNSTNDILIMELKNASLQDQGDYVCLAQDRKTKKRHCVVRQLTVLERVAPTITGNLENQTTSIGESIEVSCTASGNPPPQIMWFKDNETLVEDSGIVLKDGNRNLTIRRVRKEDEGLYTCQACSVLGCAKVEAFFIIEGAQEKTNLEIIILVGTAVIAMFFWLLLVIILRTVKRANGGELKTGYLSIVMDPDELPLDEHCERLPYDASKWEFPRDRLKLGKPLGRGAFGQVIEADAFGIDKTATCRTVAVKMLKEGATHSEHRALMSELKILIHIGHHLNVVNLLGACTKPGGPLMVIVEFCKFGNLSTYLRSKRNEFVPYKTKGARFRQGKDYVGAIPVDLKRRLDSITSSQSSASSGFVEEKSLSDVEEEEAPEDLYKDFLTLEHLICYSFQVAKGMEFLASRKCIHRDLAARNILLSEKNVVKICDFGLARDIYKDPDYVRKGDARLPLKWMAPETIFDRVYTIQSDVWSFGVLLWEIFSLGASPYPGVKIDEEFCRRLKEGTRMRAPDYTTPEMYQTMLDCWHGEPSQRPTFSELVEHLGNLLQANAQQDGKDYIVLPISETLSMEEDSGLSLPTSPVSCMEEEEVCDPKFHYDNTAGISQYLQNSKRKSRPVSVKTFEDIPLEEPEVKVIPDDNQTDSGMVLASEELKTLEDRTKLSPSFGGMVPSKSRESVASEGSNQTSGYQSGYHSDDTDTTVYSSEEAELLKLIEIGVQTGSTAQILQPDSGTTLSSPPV
Assay [4] deals with Interferon-induced, double-stranded RNA-activated protein kinase (Homo sapiens) (UniProt P19525). Nature of the assay: Inhibition of human recombinant PKR at 40 nM related to control ULK1.
Interferon-induced, double-stranded RNA-activated protein kinase (Homo sapiens), sequence (P19525 whole entry): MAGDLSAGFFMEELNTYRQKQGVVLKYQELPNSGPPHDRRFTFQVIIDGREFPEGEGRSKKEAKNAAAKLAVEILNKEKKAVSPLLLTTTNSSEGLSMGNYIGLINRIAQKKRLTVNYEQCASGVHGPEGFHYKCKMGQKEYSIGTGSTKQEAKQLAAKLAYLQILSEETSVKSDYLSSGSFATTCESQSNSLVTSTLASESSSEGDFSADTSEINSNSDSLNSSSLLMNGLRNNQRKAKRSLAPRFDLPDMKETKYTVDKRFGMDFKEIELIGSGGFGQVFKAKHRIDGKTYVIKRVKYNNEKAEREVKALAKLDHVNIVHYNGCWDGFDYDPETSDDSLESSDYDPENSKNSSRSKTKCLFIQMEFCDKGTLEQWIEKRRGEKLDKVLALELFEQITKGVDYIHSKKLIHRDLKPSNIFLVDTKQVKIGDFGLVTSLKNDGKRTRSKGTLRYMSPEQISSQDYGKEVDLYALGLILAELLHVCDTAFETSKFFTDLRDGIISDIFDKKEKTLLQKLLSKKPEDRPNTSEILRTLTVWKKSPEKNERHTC
Assay [5] deals with T3, Dual specificity mitogen-activated protein kinase kinase 6 (Homo sapiens) (UniProt P52564).
T3 sequence (whole entry): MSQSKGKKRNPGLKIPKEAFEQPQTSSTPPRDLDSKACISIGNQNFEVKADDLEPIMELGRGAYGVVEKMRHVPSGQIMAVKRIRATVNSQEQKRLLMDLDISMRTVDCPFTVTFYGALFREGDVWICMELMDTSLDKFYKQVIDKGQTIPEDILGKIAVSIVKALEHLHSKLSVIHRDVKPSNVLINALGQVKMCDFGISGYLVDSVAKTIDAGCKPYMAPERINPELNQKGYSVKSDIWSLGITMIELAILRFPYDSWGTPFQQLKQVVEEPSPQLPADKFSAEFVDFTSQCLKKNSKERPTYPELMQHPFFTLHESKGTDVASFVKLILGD
Put plainly: Inhibition of human recombinant MAP2K6 at 500 nM related to control ULK1.

With `CC(C)[C@H](NC(=O)c1cc(-c2cnn3cc(-c4ccc(OCCN5CCCCC5)cc4)cnc23)cs1)C(F)(F)F`, the inhibition in assay [1] was 42%; in assay [2] it was 0%.
In the case of `O=C(N[C@@H](C1CC1)C(F)(F)F)c1cc(-c2cnn3cc(-c4ccc(F)cc4)cnc23)cs1`, in assay [3], the inhibition amounted to 5%. In addition, the fold change (FC) in assay [4] worked out at 0.
In the case of `CNC(=O)c1ccccc1Oc1nc(Nc2cc(OC)c(OC)c(OC)c2)ncc1Br`, the fold change (FC) in assay [5] was 0.07.

By inhibition is commonly meant how much of the control response was suppressed.
